Values after ≈ are worked out from the molar mass of the structure shown.
Experiments:
[1] = Partition coefficient, log P of the compound; assay type: physicochemical; conditions: octanol/water
Tetranychus urticae = assay: Ovicidal activity against Tetranychus urticae; assay type: functional

## Fc1cccc(Cl)c1C1=NC(c2ccccc2)CO1 (stereo unspecified)
[1]
  logP: 3.45
Tetranychus urticae
  LC50: 0.01 mg/L (≈ 0.0363 µM)

## COc1ccccc1C1=NC(c2ccccc2)CO1 (stereo unspecified)
[1]
  logP: 3.76
Tetranychus urticae
  LC50: 10 mg/L (≈ 39.5 µM)

## COc1cccc(C2=NC(c3ccccc3)CO2)c1 (stereo unspecified)
[1]
  logP: 3.77
Tetranychus urticae
  LC50: > 1000 mg/L

## O=[N+]([O-])c1ccccc1C1=NC(c2ccccc2)CO1 (stereo unspecified)
[1]
  logP: 2.83
Tetranychus urticae
  LC50: 100 mg/L (≈ 373 µM)

## Cc1ccccc1C1=NC(c2ccccc2)CO1 (stereo unspecified)
[1]
  logP: 3.68
Tetranychus urticae
  LC50: 100 mg/L (≈ 421 µM)

## Cc1ccc(C2=NC(c3ccccc3)CO2)cc1 (stereo unspecified)
[1]
  logP: 4.11
Tetranychus urticae
  LC50: > 1000 mg/L

## Fc1cccc(Cl)c1-c1ncco1
[1]
  logP: 1.89

## Cc1cccc(C)c1-c1ncco1
[1]
  logP: 2.21

## Clc1cccc(Cl)c1C1=NC(c2ccccc2)CO1 (stereo unspecified)
[1]
  logP: 3.69
Tetranychus urticae
  LC50: 1 mg/L (≈ 3.42 µM)

## Brc1ccccc1C1=NC(c2ccccc2)CO1 (stereo unspecified)
[1]
  logP: 3.69
Tetranychus urticae
  LC50: 0.1 mg/L (≈ 0.331 µM)

## Ic1ccccc1-c1ncco1
[1]
  logP: 2.3

## Clc1cccc(C2=NC(c3ccccc3)CO2)c1Cl (stereo unspecified)
[1]
  logP: 4.28
Tetranychus urticae
  LC50: 10 mg/L (≈ 34.2 µM)

## O=[N+]([O-])c1ccccc1-c1ncco1
[1]
  logP: 1.27

## CSc1ccccc1C1=NC(c2ccccc2)CO1 (stereo unspecified)
[1]
  logP: 3.5
Tetranychus urticae
  LC50: 100 mg/L (≈ 371 µM)

## Clc1ccc(C2=NC(c3ccccc3)CO2)c(Cl)c1 (stereo unspecified)
[1]
  logP: 4.4
Tetranychus urticae
  LC50: 10 mg/L (≈ 34.2 µM)

## CCOc1ccccc1C1=NC(c2ccccc2)CO1 (stereo unspecified)
[1]
  logP: 4.22
Tetranychus urticae
  LC50: > 1000 mg/L

## c1ccc(C2=NC(c3ccccc3)CO2)cc1 (stereo unspecified)
[1]
  logP: 3.56
Tetranychus urticae
  LC50: 10 mg/L (≈ 44.8 µM)

## CCSc1ccccc1C1=NC(c2ccccc2)CO1 (stereo unspecified)
[1]
  logP: 4.04
Tetranychus urticae
  LC50: 100 mg/L (≈ 353 µM)

## Clc1ccccc1C1=NC(c2ccccc2)CO1 (stereo unspecified)
[1]
  logP: 3.56
Tetranychus urticae
  LC50: 1 mg/L (≈ 3.88 µM)

## Ic1ccccc1C1=NC(c2ccccc2)CO1 (stereo unspecified)
[1]
  logP: 3.86
Tetranychus urticae
  LC50: 1 mg/L (≈ 2.86 µM)

## FC(F)(F)c1ccccc1-c1ncco1
[1]
  logP: 2.15

## Clc1cccc(C2=NC(c3ccccc3)CO2)c1 (stereo unspecified)
[1]
  logP: 4.44
Tetranychus urticae
  LC50: 100 mg/L (≈ 388 µM)

## Fc1cccc(F)c1C1=NC(c2ccccc2)CO1 (stereo unspecified)
[1]
  logP: 3.01
Tetranychus urticae
  LC50: 1 mg/L (≈ 3.86 µM)

## c1ccc(Oc2ccccc2C2=NC(c3ccccc3)CO2)cc1 (stereo unspecified)
[1]
  logP: 5.61
Tetranychus urticae
  LC50: 100 mg/L (≈ 317 µM)

## Cc1cccc(C2=NC(c3ccccc3)CO2)c1 (stereo unspecified)
[1]
  logP: 4.11
Tetranychus urticae
  LC50: > 1000 mg/L

## Fc1ccccc1C1=NC(c2ccccc2)CO1 (stereo unspecified)
[1]
  logP: 3.51
Tetranychus urticae
  LC50: 10 mg/L (≈ 41.4 µM)

## COc1ccc(C2=NC(c3ccccc3)CO2)cc1 (stereo unspecified)
[1]
  logP: 3.78
Tetranychus urticae
  LC50: 100 mg/L (≈ 395 µM)

## Clc1ccc(C2=NC(c3ccccc3)CO2)cc1 (stereo unspecified)
[1]
  logP: 4.48
Tetranychus urticae
  LC50: 100 mg/L (≈ 388 µM)

## Clc1ccc(Cl)c(C2=NC(c3ccccc3)CO2)c1 (stereo unspecified)
[1]
  logP: 4.4
Tetranychus urticae
  LC50: 100 mg/L (≈ 342 µM)

## FC(F)(F)c1ccccc1C1=NC(c2ccccc2)CO1 (stereo unspecified)
[1]
  logP: 3.71
Tetranychus urticae
  LC50: 100 mg/L (≈ 343 µM)

## Fc1cccc(F)c1-c1ncco1
[1]
  logP: 1.45
